The source of these data is patent US11191855B2, “1,7-diaryl-1,6-heptadiene-3,5-dione derivatives, methods for the production and use thereof” (UNIVERSITÄTSKLINIKUM REGENSBURG, priority 2015, dated 2021).

Structures can show the parent of a compound that is named as a salt. Where two headings read alike, the source gives them in different places. Marks after values point to notes of the source that are not given here.

One assay concerns S. aureus ATCC 25923. Nature of the assay: Phototoxicity test c.2) (BlueV light source, emission maximum approx. 420 nm, CFU count). The format is cell-based, Staphylococcus aureus. To be noted: for log reduction at 10 µM / log reduction at 50 µM: Staphylococcus aureus, ATCC25923, light or radiation study, 5 min; for log reduction at 10 µM: read-out: Effectiveness against S. aureus: Reduction in CFU in log10 at concentration of 10 μM; for log reduction at 50 µM: read-out: Effectiveness against S. aureus: Reduction in CFU in log10 at concentration of 50 μM. The method, then: A sample of the bacterial cell Staphylococcus. aureus (ATCC number: 25923) or Escherichia. coli (ATCC number: 25922) was removed from a cryo-freeze culture and cultured under aerobic conditions at 37° C. and 175 rpm overnight in an orbital shaker (MAXQ4000, Thermo Scientific, Dubuque, Iowa, USA). Growth was carried out in 20 mL Todd-Hewitt broth (Carl Roth, Karlsruhe, Germany) supplemented with 0.3% of yeast extract (AppliChem, Darmstadt, Germany). In a second experiment, the photosensitizers (PS) used were dissolved in Millipore water and adjusted to various concentrations. 25 μL of a bacterial suspension grown overnight ( 108/mL) was incubated with 25 μL of photosensitizer solution of the various concentrations at room temperature for 10 seconds in darkness in a 96-well plate. Next, the suspension was irradiated for 5-20 minutes. For the irradiation, the light source BlueV from […], Germany) was used, which emits light from 380 to 480 nm (emission maximum at approximately 420 nm). The applied energy density was 17.5 mW/cm^2. Each experiment was accompanied by three controls in order to exclude side effect of the irradiation/photosensitizer (PS) on the survival of the bacteria: (i) no PS, only light (=light control), (ii) no light, only PS (=dark control) and (iii) neither light nor PS (=reference control). […] All of the tests were carried out four times. […] All of the remaining PS were tested against S. aureus ATCC 25923 (FIGS. 24-33). FIGS. 21-33 show the logarithmic reduction after illumination with respect to the reference control. […] The irradiation period was 5 minutes (emission maximum at approximately 420 nm) for an applied intensity of 17.5 mW/cm^2, i.e. an applied light energy (dosage) of 5.3 J/cm^2. The average reference control (arithmetic mean with standard deviation) (no light, no PS) was 3.9×10^8/mL. The logarithmic reduction after illumination is shown with respect to the reference control.

For the next assay, the system named is E. coli ATCC 25922. Nature of the assay: Phototoxicity test c.1) (LED array 430-435 nm, CFU count by Miles and Misra). The class given is cell-based, Escherichia coli. The settings on record: light dose 33.8 J/cm^2, approx. 435 nm, 60 min at 9.4 mW/cm^2, vs reference control. As to the method: A sample of the bacterial cell Staphylococcus. aureus (ATCC number: 25923) or Escherichia. coli (ATCC number: 25922) was removed from a cryo-freeze culture and cultured under aerobic conditions at 37° C. and 175 rpm overnight in an orbital shaker (MAXQ4000, Thermo Scientific, Dubuque, Iowa, USA). Growth was carried out in 20 mL Todd-Hewitt broth (Carl Roth, Karlsruhe, Germany) supplemented with 0.3% of yeast extract (AppliChem, Darmstadt, Germany).
Subsequently, dilutions (0, 5, 10, […] and 20% v/v of the overnight culture) and their absorptions were measured at 600 nm in triplicate for 100 μL (Infinite 200 M Pro, Tecan, Mannedorf, Switzerland). A calibration graph (Microsoft Excel) was used to calculate the volume which was required to produce 20 mL of a culture with an absorption of 0.05 at 600 nm. The volume calculated for the overnight culture was topped up with Todd-Hewitt broth (composition as above) to 20 mL and incubated for two hours at 37° C. with constant movement (175 rpm, MAXQ4000). The cultures were then in the exponential growth phase; the absorption at 600 nm was between 0.3 and 0.45.
A 2-hour culture was divided into 1800 μL aliquots. After centrifuging at 20° C., 830 rcf, 5 min (5417R centrifuge, Eppendorf, Hamburg, Germany), the pellets were re-suspended in phosphate buffer (Dulbeccos' Modified Phosphate Saline, DPBS, Sigma-Aldrich) with either 10 or 50 μM of the corresponding photosensitizer, wherein the final volume was kept at 1800 μL.
The solutions obtained were immediately incubated on the orbital shaker (see above for parameters) for 5 or 25 minutes.
Three controls were run at the same time for each photosensitizer. The “light only” control contained DPBS without photosensitizer. The “photosensitizer only” (“PS only”) control was incubated like the PDI samples, but not irradiated and kept strictly in darkness. A further control (double negative, “Co−/−”), received neither light nor photosensitizer.
After the incubation, duplicates of the samples (500 μL each) were transferred into a 24-well microtitre plate (Cellstar, Greiner Bio-One, Frickenhausen, Germany). The “PS only” and “Co −/−” samples were placed in their own microtitre plate which was packed in aluminium foil so as to be lightproof.
The irradiation was carried out under constant shaking (MTS4, IKA, Staufen, Germany, 175 rpm) from below on a LED array with maximum homogeneity of the lighting surface. All of the controls were shaken in the same manner. The technical data for the light source are shown in Table 2; the total dose of light applied was 33.8 J/cm^2.
The determination of the colony forming units (CFU) was carried out in accordance with the method published by Miles and Misra (Miles, A A; Misra, S S, Irwin, J O (1938 Nov.). “The estimation of the bactericidal power of the blood” The Journal of hygiene 38 (6): 732-49). In this regard, serial dilutions (1:10) of the corresponding bacterial suspension were produced in DPBS. 5×10 μL of each bacterial dilution was then dripped onto Todd-Hewitt plates (with broth, additional 1.5% agar (Agar-Agar, Kobe I, Roth, Karlsruhe, Germany) and incubated at 37° C. for 24 h. Next, the number of surviving colony forming units was determined. All of the tests were carried out four times.
The photosensitizers were tested against the bacterial strain E. coli ATCC 25922. FIGS. 1-20 show the measured surviving colony forming units (CFU).
The average reference control (arithmetic mean with standard deviation) (no light, no PS) was 3.6×10^8/mL. The logarithmic reduction after illumination is shown with respect to the reference control. The respective upper value, indicated by a *, refers to an incubation period of 5 min and the respectively lower value, indicated by a #, refers to an incubation period of 25 min.

The mark [1] stands for this setting: 10 μM, irradiation 5 minutes, approx. 420 nm, 17.5 mW/cm^2, 5.3 J/cm^2, vs reference control.
Setting [2] is: 50 μM, irradiation 5 minutes, approx. 420 nm, 17.5 mW/cm^2, 5.3 J/cm^2, vs reference control.
Setting [3] is: irradiation 5 minutes, approx. 420 nm, 17.5 mW/cm^2, 5.3 J/cm^2, vs reference control.
The mark [4] stands for this setting: incubation period 5 min (upper value, *).
The mark [5] stands for this setting: incubation period 25 min (lower value).

As for `COc1cc(/C=C/C(=O)C(C)C(=O)/C=C/c2ccc(OCCN)c(OC)c2)ccc1OCCN` [Curcumin 09a hydrochloride], the log reduction at 10 µM in the assay with S. aureus ATCC 25923 (setting [1]) is above 2. In addition, in the assay on S. aureus ATCC 25923 (setting [2]), the log reduction at 50 µM is above 5.

Turning to `COc1ccc(/C=C/C(=O)C(CCN)C(=O)/C=C/c2ccc(OC)c(OC)c2)cc1OC.Cl` [Curcumin 11a hydrochloride], in the assay with S. aureus ATCC 25923 (setting [3]), the “Effectiveness against S. aureus: Reduction in CFU in log10 at concentration of 100 μM” value is reported as above 2 log10 and the “Effectiveness against S. aureus: Reduction in CFU in log10 at concentration of 250 μM” value is given as above 5 log10. Besides, the log reduction at 50 µM in the assay on S. aureus ATCC 25923 (setting [2]) is above 1.

Regarding `Cl.Cl.NCCOc1ccc2cc(/C=C/C(=O)CC(=O)/C=C/c3ccc4cc(OCCN)ccc4c3)ccc2c1` [Curcumin 12b hydrochloride], in the assay with S. aureus ATCC 25923 (setting [3]), the “Effectiveness against S. aureus: Reduction in CFU in log10 at concentration of 100 μM” value is around 2 log10 and the “Effectiveness against S. aureus: Reduction in CFU in log10 at concentration of 250 μM” value is above 3 log10. Besides, the log reduction at 50 µM in the assay on S. aureus ATCC 25923 (setting [2]) is above 1.

On to `COc1ccc(/C=C/C(=O)C(CCN)C(=O)/C=C/c2ccc(OC)c(OCCN)c2)cc1OCCN` [Curcumin 13a hydrochloride], for which, in the assay with S. aureus ATCC 25923 (setting [1]), the log reduction at 10 µM is above 1. The log reduction at 50 µM in the assay on S. aureus ATCC 25923 (setting [2]) was above 5.

Consider `COc1cc(/C=C/C(=O)C(C)C(=O)/C=C/c2ccc(OCCN)c(OCCN)c2)ccc1OCCN` (stereo not shown) [Curcumin 13c hydrochloride], for which the log reduction at 10 µM in the assay on S. aureus ATCC 25923 (setting [1]) is above 1. Besides, the log reduction at 50 µM with S. aureus ATCC 25923 (setting [2]) was above 5.

As for `COc1cc(/C=C(\C)C(=O)CC(=O)/C(C)=C/c2ccc(OCCN)c(OC)c2)ccc1OCCN.Cl.Cl` [Curcumin 14a hydrochloride], in the assay with S. aureus ATCC 25923 (setting [3]), the “Effectiveness against S. aureus: Reduction in CFU in log10 at concentration of 100 μM” value is given as above 2 log10 and the “Effectiveness against S. aureus: Reduction in CFU in log10 at concentration of 250 μM” value is above 3 log10. In addition, the log reduction at 50 µM in the assay with S. aureus ATCC 25923 (setting [2]) was above 1.

Turning to `COc1cc(/C=C/C(=O)CC(=O)/C=C/c2ccc(OCCC[P+](C)(C)C)c(OC)c2)ccc1OCCC[P+](C)(C)C` [Curcumin 15a hydrochloride, 3,3′-(4,4′-((1E,6E)-3,5-dioxohepta-1,6-diene-1,7-diyl)bis(2-methoxy-4,1-phenylene))bis(oxy)bis(trimethylpropan-1-phosphonium) chloride], the log reduction at 10 µM in the assay on S. aureus ATCC 25923 (setting [1]) is around 1. The log reduction at 50 µM with S. aureus ATCC 25923 (setting [2]) is above 5.

With `COc1cc(/C=C/C(=O)CC(=O)/C=C/c2ccc(OCCC[P+](c3ccccc3)(c3ccccc3)c3ccccc3)c(OC)c2)ccc1OCCC[P+](c1ccccc1)(c1ccccc1)c1ccccc1` [Curcumin 15b hydrochloride, 3,3′-(4,4′-((1E,6E)-3,5-dioxohepta-1,6-diene-1,7-diyl)bis(2-methoxy-4,1-phenylene))bis(oxy)bis(triphenylpropan-1-phosphonium) chloride], in the assay with S. aureus ATCC 25923, the log reduction at 10 µM is above 4 and the log reduction at 50 µM is above 5.

Take “(1E,6E)1,7- bis(4-(2- aminoethoxy)-3- methoxy- phenyl)hepta-1,6- diene-3,5-dione hydrochloride BF2 complex [Curcumin 01a BF-complex]”: in the assay on S. aureus ATCC 25923 (setting [1]), the “Effectiveness against S. aureus: Reduction in CFU in log10 at concentration of 10 μM” value is above 5 log10. In addition, the “Effectiveness against S. aureus: Reduction in CFU in log10 at concentration of 50 μM” value in the assay on S. aureus ATCC 25923 (setting [2]) is above 5 log10.

On to “Bis[(1E,6E)-1,7- bis(4-(2- aminoethoxy)-3- methoxy- phenyl)hepta-1,6- diene-3,5-dione hydrochloride] boron complex [Roseo-curcumin 01a hydrochloride]”, for which, in the assay with E. coli ATCC 25922 (setting [4]), the “Effectiveness against E. Coli: Reduction in CFU in log10 at concentration of 10 μM” value was >5* log10 and the “Effectiveness against E. Coli: Reduction in CFU in log10 at concentration of 50 μM” value is reported as >7* log10. For the same compound, in the assay with E. coli ATCC 25922 (setting [5]), the “Effectiveness against E. Coli: Reduction in CFU in log10 at concentration of 10 μM” value was above 5 log10 and the “Effectiveness against E. Coli: Reduction in CFU in log10 at concentration of 50 μM” value was above 6 log10.
